Patent US9248163B2, “Insulin-like growth factor binding protein 7 for treatment of cancer” (University of Massachusetts, priority 2007, dated 2016)

Key:
[1] = test system: SK-MEL-28 cells; experiment: ChIP assays 24 hours following rIGFBP7 treatment; type: cell-based, human
Method: Chromatin immunoprecipitation (ChIP) assays were performed using extracts prepared 24 hours following rIGFBP7 treatment. The following antibodies were used: α-BRG1 (de La Serna et al., 2000, Mol. Cell. Biol., 20:2839-51), α-phospho-STAT1 (Upstate), and α-SMARCB1 and α-STAT1 (Santa Cruz). For ChIP experiments on the SMARCB1 promoter, primers spanning a STAT1 binding site located ˜2.4 kb upstream of the transcription start-site were used. For ChIP experiments on the BNIP3L promoter, a series of primer-pairs that covered ˜2 kb of the BNIP3L promoter were used; following addition of rIGFBP7, SMARCB1 and BRG1 were recruited to the BNIP3L promoter near the transcription start-site. ChIP products were analyzed by quantitative real-time PCR using Platinum SYBR™ Green qPCR SuperMix-UDG with Rox (Invitrogen). Calculation of fold differences was done as previously described (Pfaffl, 2001, Nucleic Acids Res., 29:e45).

[2] = test system: melanocytes; experiment: Senescence-associated β-galactosidase assay; type: cell-based, human; details: rIGFBP7 10 μg/ml for 14 days; growth-arrested cells
Method: Melanocytes infected with a retrovirus expressing either vector or BRAFV600E, or melanocytes treated with BRAFV600E/melanocyte CM or rIGFBP7 (10 μg/ml) for 14 days were washed twice with PBS (5 minutes at room temperature), fixed with 3% formaldehyde (5 minutes at room temperature), and washed three more times with PBS. Cells were then incubated at 37° C. (0% CO2) overnight in SA-β-Gal stain solution (1 mg/mL X-Gal (5-bromo-4-chloro-3-indoyl b-D-galactoside), 40 mM citric acid/sodium phosphate (pH 6.0), 5 mM potassium ferrocyanide, 5 mM potassium ferricyanide, 150 mM NaCl and 2 mM MgCl2). Cells were washed with PBS and visualized on a Zeiss Axiovert™ 40 CFL microscope. Images were captured using QCapture™ Pro version 5 software (QImaging Corporation).

Substance: rIGFBP7: purified recombinant human IGFBP7, C-terminal Flag-tagged, from baculovirus-infected Sf9 insect cells
- STAT1 recruitment to the SMARCB1 promoter ([1]; SK-MEL-28 cells): recruited
- SMARCB1 and BRG1 recruitment to the BNIP3L promoter ([1]; near the transcription start-site): recruited
- senescence-associated β-galactosidase staining [2]: stained positively
